The test system of experiment [1] is spliceosome (SF3b, component of the subcomplex U2 snRNA). The note with it: Nature Chemical Biology (2007), 3(9), 576-583; Nature (2010), 468(7324), 664-668; cited from earlier work.
In a further experiment the test system is human cancer cell lines. The note with it: Journal of Antibiotics (1996), 49(12), 1204-1211; cited from earlier work.
In another experiment the test system is xenograft tumor models. Particulars: Journal of Antibiotics (1996), 49(12), 1204-1211; cited from earlier work.
Experiment [2] concerns N87 (gastric cancer) cells. The experiment can be described thus: In vitro cell assay (MTS cell viability), N87. Particulars: free compounds (natural products and synthetic analogs), cell viability 96 hours after treatment. It is filed as cell-based. In short, it runs like this:
(§1)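 Cells seeded 24 h, then treated with antibody-drug conjugates or free drug, 3-fold serial dilutions at 10 concentrations in duplicate. Viability by MTS at 96 h as percent of untreated control; IC50 from four-parameter logistic fit.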

In experiment [3] the test system is MDA-MB-361-DYT2 (breast cancer) cells. The experiment can be described thus: In vitro cell assay (MTS cell viability), MDA-MB-361-DYT2. The experiment is classed as cell-based. The note with it: free compounds (natural products and synthetic analogs), cell viability 96 hours after treatment. In short, it runs like this: as §1
The test system of experiment [4] is BT474 (breast cancer) cells. The experiment can be described thus: In vitro cell assay (MTS cell viability), BT474. The experiment is classed as cell-based. The note with it: Homo sapiens, BT-474; free compounds (natural products and synthetic analogs); cell viability 96 hours after treatment. In a few lines: as §1
The test system of experiment [5] is MDA-MB-468 cells (target non-expressing). The experiment can be described thus: In vitro cell assay (MTS cell viability), MDA-MB-468. It is filed as cell-based. Particulars: Homo sapiens. As to the method:
Target expressing (BT474 (breast cancer), N87 (gastric cancer), HCC1954 (breast cancer), MDA-MB-361-DYT2 (breast cancer)) or non-expressing (MDA-MB-468) cells were seeded in 96-well cell culture plates for 24 hours before treatment. Cells were treated with 3-fold serially diluted antibody-drug conjugates or free compounds (i.e., no antibody conjugated to the drug) in duplicate at 10 concentrations. Cell viability was determined by CellTiter 96® AQueous One Solution Cell Proliferation MTS Assay (Promega, Madison Wis.) 96 hours after treatment. Relative cell viability was determined as percentage of untreated control. IC50 values were calculated using a four parameter logistic model #203 with XLfit v4.2 (IDBS, Guildford, Surry, UK). The potency ranged upward from 0.0002 nm. Similar procedures and techniques were employed.

Where [6] appears, read: MDA-MB-468, 96 h, read-out: MDA-MB-468 IC50 (nM).

Here are results for eleven compounds from US9504669B2, “Spliceostatin analogs and methods for their preparation” (PFIZER INC., priority 2012, dated 2016).

Read-outs that look alike come from different tables or passages of the source.

As to `CC(=O)O[C@@H](C)/C=C\C(=O)N[C@@H]1C[C@H](C)[C@H](C/C=C(C)/C=C/[C@H]2O[C@](C)(O)C[C@@]3(CO3)[C@@H]2O)O[C@@H]1C` [FR901464], the “inhibition of the spliceosome” value in experiment [1] is “inhibit the spliceosome by interaction with SF3b”. In addition, the “inhibitory activities against human cancer cell lines” value (from here on “inhibitory activities”) in the experiment on human cancer cell lines is given as “potent inhibitory activities”. In addition, the “efficacies in xenograft tumor models” value in the experiment with xenograft tumor models is on record as “efficacies in several xenograft tumor models”.
`CC(=O)O[C@@H](C)/C=C\C(=O)N[C@@H]1C[C@H](C)[C@H](C/C=C(C)/C=C/[C@@H]2C[C@]3(CO3)C[C@@H](CC(=O)O)O2)O[C@@H]1C` [#NP2, [(3S,5S,7S)-7-{(1E,3E)-5-[(2S,3S,5R,6R)-5-{[(2Z,4S)-4-(acetyloxy)pent-2-enoyl]amino}-3,6-dimethyltetrahydro-2H-pyran-2-yl]-3-methylpenta-1,3-dien-1-yl}-1,6-dioxaspiro[2.5]oct-5-yl]acetic acid]: the IC50 came out at 2.51 nM in experiment [2]; 8.5 nM in experiment [3]; 5.12 nM in experiment [4]; 3.39 nM in experiment [5] (MDA-MB-468, free compounds (natural products and synthetic analogs), cell viability 96 hours after treatment, read-out: MDA-MB-468 IC50).
Turning to `CC(=O)O[C@@H](C)/C=C\C(=O)N[C@@H]1C[C@H](C)[C@H](C/C=C(C)/C=C/[C@H]2O[C@H](CC(=O)O)C[C@@]3(CO3)[C@@H]2O)O[C@@H]1C` [#NP1, [(3R,5S,7R,8R)-7-{(1E,3E)-5-[(2S,3S,5R,6R)-5-{[(2Z,4S)-4-(acetyloxy)pent-2-enoyl]amino}-3,6-dimethyltetrahydro-2H-pyran-2-yl]-3-methylpenta-1,3-dien-1-yl}-8-hydroxy-1,6-dioxaspiro[2.5]oct-5-yl]acetic Acid], the IC50 in experiment [2] (96 h) worked out at 61.6 nM; in experiment [3] (96 h), 160 nM; in experiment [4] it was 145 nM; in experiment [5] (setting [6]) it was 142 nM.
On to FR901465, for which the “inhibitory activities” value in the experiment with human cancer cell lines is “potent inhibitory activities”. In addition, the “efficacies in xenograft tumor models” value in the experiment on xenograft tumor models was “efficacies in several xenograft tumor models”.
Consider `CC(/C=C/[C@H]1O[C@H](CC(=O)O)C[C@@]2(CO2)[C@@H]1O)=C\C[C@@H]1O[C@H](C)[C@H](NC(=O)/C=C\[C@H](C)O)C[C@@H]1C` [#B4, [(3R,5S,7R,8R)-8-hydroxy-7-{(1E,3E)-5-[(2S,3S,5R,6R)-5-{[(2Z,4S)-4-hydroxypent-2-enoyl]amino}-3,6-dimethyltetrahydro-2H-pyran-2-yl]-3-methylpenta-1,3-dien-1-yl}-1,6-dioxaspiro[2.5]oct-5-yl]acetic acid], for which the IC50 in experiment [2] (96 h), in experiment [3] (96 h), in experiment [4] and in experiment [5] (setting [6]) was > 100 nM throughout.
As for `CC(/C=C/[C@@H]1C[C@]2(CO2)C[C@@H](CC(=O)O)O1)=C\C[C@@H]1O[C@H](C)[C@H](NC(=O)/C=C\[C@H](C)O)C[C@@H]1C` [#B16, [(3S,5S,7S)-7-{(1E,3E)-5-[(2S,3S,5R,6R)-5-{[(2Z,4S)-4-hydroxypent-2-enoyl]amino}-3,6-dimethyltetrahydro-2H-pyran-2-yl]-3-methylpenta-1,3-dien-1-yl}-1,6-dioxaspiro[2.5]oct-5-yl]acetic acid], the IC50 is 16.8 nM in experiment [2] (96 h), > 100 nM in experiment [3] (96 h), 76.1 nM in experiment [4] and 36.8 nM in experiment [5] (setting [6]).
Turning to `CC(=O)O[C@@H](C)/C=C\C(=O)N[C@@H]1C[C@H](C)[C@H](C/C=C(C)/C=C/[C@H]2O[C@](C)(O)C[C@@](O)(CCl)[C@@H]2O)O[C@@H]1C` [FR901463], the “inhibitory activities” value in the experiment with human cancer cell lines is “potent inhibitory activities”. Moreover, the “efficacies in xenograft tumor models” value with xenograft tumor models was “efficacies in several xenograft tumor models”.
On to `CO[C@]1(C)C[C@@]2(CO2)[C@H](O)[C@@H](/C=C/C(C)=C/C[C@@H]2O[C@H](C)[C@H](NC(=O)/C=C\[C@H](C)OC(C)=O)C[C@@H]2C)O1` [spliceostatin A], for which the “inhibition of the spliceosome” value in experiment [1] is listed as “inhibit the spliceosome by interaction with SF3b”.
Regarding `COC(=O)C[C@@H]1C[C@@]2(CO2)C[C@@H](/C=C/C(C)=C/C[C@@H]2O[C@H](C)[C@H](NC(=O)/C=C\[C@H](C)O)C[C@@H]2C)O1` [#B148, methyl [(3S,5S,7S)-7-{(1E,3E)-5-[(2S,3S,5R,6R)-5-{[(2Z,4S)-4-hydroxypent-2-enoyl]amino}-3,6-dimethyltetrahydro-2H-pyran-2-yl]-3-methylpenta-1,3-dien-1-yl}-1,6-dioxaspiro[2.5]oct-5-yl]acetate], the IC50 in experiment [2] (96 h) was 47.4 nM; in experiment [3] (96 h), > 100 nM; in experiment [4] it was 40.8 nM; in experiment [5] (setting [6]) it was 64.4 nM.
Turning to `CC(=O)O[C@@H](C)/C=C\C(=O)N[C@@H]1C[C@H](C)[C@H](C/C=C(C)/C=C/[C@H]2O[C@H](CC(=O)N[C@H]3CC[C@H](N)CC3)C[C@@]3(CO3)[C@@H]2O)O[C@@H]1C` [#B76, (2S,3Z)-5-{[(2R,3R,5S,6S)-6-{(2E,4E)-5-[(3R,4R,5R,7S)-7-{2-[(trans-4-aminocyclohexyl)amino]-2-oxoethyl}-4-hydroxy-1,6-dioxaspiro[2.5]oct-5-yl]-3-methylpenta-2,4-dien-1-yl}-2,5-dimethyltetrahydro-2H-pyran-3-yl]amino}-5-oxopent-3-en-2-yl acetate], the IC50 stood at 331 nM in experiment [2] (96 h), 885 nM in experiment [3] (96 h), 341 nM in experiment [4] and 272 nM in experiment [5] (setting [6]).
On the same counts, the results for `CC(=O)O[C@@H](C)/C=C\C(=O)N[C@@H]1C[C@H](C)[C@H](C/C=C(C)/C=C/[C@H]2O[C@H](CC(=O)NN)C[C@@]3(CO3)[C@@H]2O)O[C@@H]1C` [#B6, (2S,3Z)-5-{[(2R,3R,5S,6S)-6-{(2E,4E)-5-[(3R,4R,5R,7S)-7-(2-hydrazinyl-2-oxoethyl)-4-hydroxy-1,6-dioxaspiro[2.5]oct-5-yl]-3-methylpenta-2,4-dien-1-yl}-2,5-dimethyltetrahydro-2H-pyran-3-yl]amino}-5-oxopent-3-en-2-yl acetate] are 5.66 nM, 25.4 nM, 16.5 nM and 7.97 nM.

Broadly, the IC50 is the midpoint of a concentration-inhibition curve.
